Read-outs that look alike come from different tables or passages of the source.
Assays:
[1] = target: Cbl-b (Homo sapiens (Human), UniProt Q13191); test: Cbl-b displacement assay (Cbl-b inhibition assay), Biological Example 1; type: binding
Procedure: The ability of candidate compounds to displace a known inhibitor and thereby inhibit Cbl-b activity was measured by monitoring the interaction of Cbl-b with a fluorophore-labeled probe in the presence of the candidate compound.
Following the one hour incubation, the plates were read for TR-FRET signal at 520/620 nm using an Envision plate reader (Perkin Elmer).

[2] = system: primary human total T-cells; test: Primary human total T-cell activation (IL-2 secretion, CD25 surface staining), Biological Example 2; conditions: fold change over baseline; for CD25 staining CD3/CD28 0.3 μM / IL-2 secretion CD3/CD28 0.3 μM: 0.3 μM inhibitor; for CD25 staining CD3/CD28 0.3 μM / IL-2 secretion CD3/CD28 0.3 μM / CD25 staining CD3/CD28 1 μM / IL-2 secretion CD3/CD28 1 μM: anti-CD3 and anti-CD28 co-stimulation; for CD25 staining CD3/CD28 1 μM / IL-2 secretion CD3/CD28 1 μM / CD25 staining CD3 1 μM / IL-2 secretion CD3 1 μM: 1 μM inhibitor; for CD25 staining CD3 1 μM / IL-2 secretion CD3 1 μM / CD25 staining CD3 3 μM / IL-2 secretion CD3 3 μM: anti-CD3 stimulation alone; for CD25 staining CD3 3 μM / IL-2 secretion CD3 3 μM: 3 μM inhibitor
Procedure: Peripheral blood mononuclear cells (PBMC) were obtained either: 1) by using Ficoll-Paque™ (GE Healthcare) for separation of peripheral blood hematopoietic cells from buffy coats of healthy human donors; or 2) directly from LeukoPak donations. […] The cells were rested overnight at 37° C. 5% CO2. The Cbl-inhibitor was added to 1×10^5 cells per well and the plate was incubated for one hour at 37° C. in 5% CO2 at the concentrations indicated (Table 3) with a final DMSO concentration of <0.1%. For samples stimulated with anti-CD3 antibody and anti-CD28 antibody (anti-CD3/anti-CD28), the Cbl-b inhibitor concentrations tested were 1 μM, and 0.3 μM. For samples stimulated with anti-CD3 antibody alone (anti-CD3), the Cbl-b inhibitor concentrations tested were 3 μM, and 1 μM. […] To prepare plates with plate bound anti-CD3 antibody (OKT3), 96-well round bottom tissue culture plates were coated with 100 μL of anti-CD3 antibody (OKT3) at 10 μg/mL for 4 hours at 37° C. 5% CO2 in phosphate buffered saline (PBS). […] Cells were stimulated for 48 hours prior to harvesting the cell free supernatant and staining the cell population for surface marker assessment by flow cytometry. Supernatants were analyzed for cytokine secretion, including IL-2 by ELISA (R&D Systems, Peprotech or Life Technologies) or Luminex multiplex kits (Procarta Life Technologies) following the manufacturer's protocol. Cells were stained with anti-CD25 antibody (BD Biosciences) to assess levels of surface marker of activation.
Readouts were reported as fold change over baseline. Baseline for this study was the measurement obtained from total human T-cells stimulated with anti-CD3 antibody and with soluble anti-CD28 antibody, wherein the cells were not incubated with a Cbl-b inhibitor (Table 3).

[3] = 0.125 nM Cbl-b final concentration (Low), read-out: Cbl-b activity IC50 (Low)

Cbl-b, sequence (Q13191 36-427): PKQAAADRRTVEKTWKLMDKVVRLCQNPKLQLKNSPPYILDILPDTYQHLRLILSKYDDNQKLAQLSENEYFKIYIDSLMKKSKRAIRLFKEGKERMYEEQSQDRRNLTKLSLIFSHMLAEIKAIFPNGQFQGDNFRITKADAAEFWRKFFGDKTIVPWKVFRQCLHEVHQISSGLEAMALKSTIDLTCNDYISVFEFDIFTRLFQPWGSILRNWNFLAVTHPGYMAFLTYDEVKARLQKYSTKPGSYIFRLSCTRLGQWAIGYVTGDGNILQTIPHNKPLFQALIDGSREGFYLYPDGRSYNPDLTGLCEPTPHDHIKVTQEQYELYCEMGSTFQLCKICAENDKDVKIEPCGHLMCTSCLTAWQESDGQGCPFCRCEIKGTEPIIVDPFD

Compound | IC50 [1, 3] [nM] | IC50 ([1]; read-out: IC50 values in the Cbl-b inhibition assay of Biological Example 1) [nM] | CD25 staining CD3/CD28 0.3 μM [2] | IL-2 secretion CD3/CD28 0.3 μM [2] | CD25 staining CD3/CD28 1 μM [2] | IL-2 secretion CD3/CD28 1 μM [2] | CD25 staining CD3 1 μM [2] | IL-2 secretion CD3 1 μM [2] | CD25 staining CD3 3 μM [2] | IL-2 secretion CD3 3 μM [2]
C[C@@H]1CN(Cc2cc3c(c(C(F)(F)F)c2)CN(c2cccc([C@]4(c5nncn5C)C[C@H](C)C4)c2)C3=O)CCC1(F)F [Compound 20, 6-(((R)-4,4-difluoro-3-methylpiperidin-1-yl)methyl)-2-(3-((1r,3R)-3-methyl-1-(4-methyl-4H-1,2,4-triazol-3-yl)cyclobutyl)phenyl)-4-(trifluoromethyl)isoindolin-1-one] | 20 to 100 |  | B (B indicates 1.24-1.39 fold) | C (C indicates <20 fold) | B (B indicates 1.24-1.39 fold) | C (C indicates <20 fold) | A (A indicates >2.5 fold) | B (B indicates 0.70-1.1 fold) | A (A indicates >2.5 fold) | A (A indicates >1.1 fold)
Cc1cc(C(=O)Nc2cccc([C@]3(c4nncn4C)C[C@@H](C)C3)c2)nc(C2CC2)n1 [Compound 21, 2-cyclopropyl-6-methyl-N-{3-[(1r,3s)-3-methyl-1-(4-methyl-1,2,4-triazol-3-yl)cyclobutyl]phenyl}pyrimidine-4-carboxamide] | 20 to 100 |  | B (B indicates 1.24-1.39 fold) | C (C indicates <20 fold) | B (B indicates 1.24-1.39 fold) | C (C indicates <20 fold) | B (B indicates 1.5-2.5 fold) | B (B indicates 0.70-1.1 fold) | B (B indicates 1.5-2.5 fold) | B (B indicates 0.70-1.1 fold)
Cc1cc(C(=O)Nc2cccc([C@]3(c4nncn4C)C[C@H](C)C3)c2)nc(C2CC2)n1 [Compound 22, 2-cyclopropyl-6-methyl-N-{3-[(1s,3r)-3-methyl-1-(4-methyl-1,2,4-triazol-3-yl)cyclobutyl]phenyl}pyrimidine-4-carboxamide] | 20 to 100 |  |  | C (C indicates <20 fold) |  | C (C indicates <20 fold) | C (C indicates <1.5 fold) | C (C indicates <0.70 fold) | C (C indicates <1.5 fold) | C (C indicates <0.70 fold)
C[C@@H]1CN(Cc2cc3c(c(C4CC4)n2)CN(c2cccc([C@]4(c5nncn5C)C[C@@H](C)C4)c2)C3=O)CCC1(F)F [Compound 26, 4-cyclopropyl-6-(((R)-4,4-difluoro-3-methylpiperidin-1-yl)methyl)-2-(3-((1s,3S)-3-methyl-1-(4-methyl-4H-1,2,4-triazol-3-yl)cyclobutyl)phenyl)-2,3-dihydro-1H-pyrrolo[3,4-c]pyridin-1-one] | 5 to 20 |  | B (B indicates 1.24-1.39 fold) | C (C indicates <20 fold) |  | B (B indicates 20-35 fold) | A (A indicates >2.5 fold) | A (A indicates >1.1 fold) | A (A indicates >2.5 fold) | A (A indicates >1.1 fold)

Now from value to molecule, other results behind:

IC50 [1, 3] [nM] | IC50 ([1]; read-out: IC50 values in the Cbl-b inhibition assay of Biological Example 1) [nM] | Compound | CD25 staining CD3/CD28 0.3 μM [2] | IL-2 secretion CD3/CD28 0.3 μM [2] | CD25 staining CD3/CD28 1 μM [2] | IL-2 secretion CD3/CD28 1 μM [2] | CD25 staining CD3 1 μM [2] | IL-2 secretion CD3 1 μM [2] | CD25 staining CD3 3 μM [2] | IL-2 secretion CD3 3 μM [2]
> 100 | > 100 | Cn1cnnc1C(C)(c1cccc(N2Cc3c(cccc3C(F)(F)F)C2=O)c1)C1CCC1 (centres unmarked) [Compound 18, 2-(3-(1-cyclobutyl-1-(4-methyl-4H-1,2,4-triazol-3-yl)ethyl)phenyl)-4-(trifluoromethyl)isoindolin-1-one] | B (B indicates 1.24-1.39 fold) | C (C indicates <20 fold) | B (B indicates 1.24-1.39 fold) | C (C indicates <20 fold) | B (B indicates 1.5-2.5 fold) | C (C indicates <0.70 fold) | A (A indicates >2.5 fold) | C (C indicates <0.70 fold)
20 to 100 |  | C[C@@H]1CN(Cc2cc3c(c(C(F)(F)F)c2)CN(c2cccc([C@]4(c5nncn5C)C[C@@H](C)C4)c2)C3=O)CCC1(F)F [Compound 19, 6-(((R)-4,4-difluoro-3-methylpiperidin-1-yl)methyl)-2-(3-((1s,3S)-3-methyl-1-(4-methyl-4H-1,2,4-triazol-3-yl)cyclobutyl)phenyl)-4-(trifluoromethyl)isoindolin-1-one] |  | C (C indicates <20 fold) |  | C (C indicates <20 fold) | C (C indicates <1.5 fold) | C (C indicates <0.70 fold) | C (C indicates <1.5 fold) | C (C indicates <0.70 fold)
20 to 100 |  | C[C@@H]1CN(Cc2cc3c(c(C(F)(F)F)c2)CN(c2cccc([C@]4(c5nncn5C)C[C@@H](C)C4)c2)C3=O)CCO1 [Compound 24, 2-(3-((1s,3S)-3-methyl-1-(4-methyl-4H-1,2,4-triazol-3-yl)cyclobutyl)phenyl)-6-(((R)-2-methylmorpholino)methyl)-4-(trifluoromethyl)isoindolin-1-one] |  | C (C indicates <20 fold) |  | C (C indicates <20 fold) | C (C indicates <1.5 fold) | C (C indicates <0.70 fold) | C (C indicates <1.5 fold) | C (C indicates <0.70 fold)
5 to 20 |  | C[C@H]1CCCN(Cc2cc3c(c(C4CC4)n2)CN(c2cccc([C@]4(c5nncn5C)C[C@@H](C)C4)c2)C3=O)C1 [Compound 25, 4-cyclopropyl-2-(3-((1s,3R)-3-methyl-1-(4-methyl-4H-1,2,4-triazol-3-yl)cyclobutyl)phenyl)-6-(((S)-3-methylpiperidin-1-yl)methyl)-2,3-dihydro-1H-pyrrolo[3,4-c]pyridin-1-one] | B (B indicates 1.24-1.39 fold) | C (C indicates <20 fold) | B (B indicates 1.24-1.39 fold) | C (C indicates <20 fold) | B (B indicates 1.5-2.5 fold) | B (B indicates 0.70-1.1 fold) | B (B indicates 1.5-2.5 fold) | B (B indicates 0.70-1.1 fold)
5 to 20 |  | CC[C@H]1CN(Cc2cc3c(c(C(F)(F)F)c2)CN(c2cccc([C@]4(c5nncn5C)C[C@@H](C)C4)c2)C3=O)CCO1 [Compound 27, 6-(((S)-2-ethylmorpholino)methyl)-2-(3-((1s,3R)-3-methyl-1-(4-methyl-4H-1,2,4-triazol-3-yl)cyclobutyl)phenyl)-4-(trifluoromethyl)isoindolin-1-one] | B (B indicates 1.24-1.39 fold) | C (C indicates <20 fold) |  | B (B indicates 20-35 fold) | C (C indicates <1.5 fold) | C (C indicates <0.70 fold) | C (C indicates <1.5 fold) | C (C indicates <0.70 fold)

— patent US12234230B2, “Substituted benzyl-triazole compounds for Cbl-b inhibition, and further uses thereof” (Nurix Therapeutics, Inc., priority 2019, dated 2025)
